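A five-concentration, 48-hour dose response in 96-well plates underlies each endpoint, interpolated linearly between surrounding concentrations. At the GI50, growth is halved.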 Calls of active or inactive are those of the source. Cut-off read from the data, not from the text of the source: active = GI50 up to about 1.1 µM and inactive = higher.
How the values were obtained:
Experiment in all cases: NCI-60 cell line screen, 48 h
UACC-257 = test system: UACC-257
HCT-15 = test system: HCT-15
EKVX = test system: EKVX
HCC 2998 = test system: HCC 2998
K562 = test system: K562
HOP-62 = test system: HOP-62
SK-MEL-5 = test system: SK-MEL-5
NCI-H23 = test system: NCI-H23
NCI-H522 = test system: NCI-H522
IGROV-1 = test system: IGROV-1
ACHN = test system: ACHN
HT-29 = test system: HT-29
OVCAR-5 = test system: OVCAR-5
DU-145 = test system: DU-145
HL-60 = test system: HL-60
OVCAR-4 = test system: OVCAR-4
A549 = test system: A549
NCI-H460 = test system: NCI-H460
M14 = test system: M14
UACC-62 = test system: UACC-62
LOX IMVI = test system: LOX IMVI
SNB-19 = test system: SNB-19
SW-620 = test system: SW-620
SK-MEL-2 = test system: SK-MEL-2
RXF 393 = test system: RXF 393
SK-MEL-28 = test system: SK-MEL-28
Malme-3M = test system: Malme-3M
OVCAR-3 = test system: OVCAR-3
KM12 = test system: KM12
CCRF-CEM = test system: CCRF-CEM
COLO 205 = test system: COLO 205
SF-268 = test system: SF-268
MCF7 = test system: MCF7
OVCAR-8 = test system: OVCAR-8
HCT-116 = test system: HCT-116
RPMI-8226 = test system: RPMI-8226
MDA-MB-231 = test system: MDA-MB-231
TK-10 = test system: TK-10
786-0 = test system: 786-0
SF-295 = test system: SF-295
UO-31 = test system: UO-31
SK-OV-3 = test system: SK-OV-3
HOP-92 = test system: HOP-92
NCI/ADR-RES = test system: NCI/ADR-RES
BT-549 = test system: BT-549
SR = test system: SR
A498 = test system: A498
MDA-N = test system: MDA-N
T47D = test system: T47D
Hs-578T = test system: Hs-578T
SN12C = test system: SN12C
U-251 = test system: U-251
SNB-75 = test system: SNB-75
NCI-H226 = test system: NCI-H226
PC-3 = test system: PC-3
CAKI-1 = test system: CAKI-1
SF-539 = test system: SF-539
MOLT-4 = test system: MOLT-4
MDA-MB-435 = test system: MDA-MB-435

Compound: c1ccc(CCN2CCN=C2Cc2ccccc2)cc1
- GI50 (UACC-257): > 100 µM (inactive)
- GI50 (HCT-15): > 100 µM
- GI50 (EKVX): > 100 µM (inactive)
- GI50 (HCC 2998): 21.3 µM (inactive)
- GI50 (K562): 29.2 µM (inactive)
- GI50 (HOP-62): > 100 µM (inactive)
- GI50 (SK-MEL-5): > 100 µM (inactive)
- GI50 (NCI-H23): > 100 µM (inactive)
- GI50 (NCI-H522): > 100 µM (inactive)
- GI50 (IGROV-1): > 100 µM (inactive)
- GI50 (ACHN): > 100 µM (inactive)
- GI50 (HT-29): 67.1 µM (inactive)
- GI50 (OVCAR-5): > 100 µM (inactive)
- GI50 (DU-145): > 100 µM (inactive)
- GI50 (HL-60): > 100 µM (inactive)
- GI50 (OVCAR-4): > 100 µM (inactive)
- GI50 (A549): > 100 µM (inactive)
- GI50 (NCI-H460): > 100 µM (inactive)
- GI50 (M14): 31.1 µM (inactive)
- GI50 (UACC-62): > 100 µM (inactive)
- GI50 (LOX IMVI): > 100 µM (inactive)
- GI50 (SNB-19): > 100 µM (inactive)
- GI50 (SW-620): > 100 µM (inactive)
- GI50 (SK-MEL-2): > 100 µM (inactive)
- GI50 (RXF 393): > 100 µM (inactive)
- GI50 (SK-MEL-28): > 100 µM (inactive)
- GI50 (Malme-3M): > 100 µM (inactive)
- GI50 (OVCAR-3): 71.3 µM (inactive)
- GI50 (KM12): > 100 µM (inactive)
- GI50 (CCRF-CEM): 37.3 µM (inactive)
- GI50 (COLO 205): > 100 µM (inactive)
- GI50 (SF-268): > 100 µM (inactive)
- GI50 (MCF7): > 100 µM (inactive)
- GI50 (OVCAR-8): > 100 µM (inactive)
- GI50 (HCT-116): > 100 µM (inactive)
- GI50 (RPMI-8226): 29 µM (inactive)
- GI50 (MDA-MB-231): > 100 µM (inactive)
- GI50 (TK-10): > 100 µM (inactive)
- GI50 (786-0): > 100 µM (inactive)
- GI50 (SF-295): > 100 µM (inactive)
- GI50 (UO-31): 99.1 µM (inactive)
- GI50 (SK-OV-3): > 100 µM (inactive)
- GI50 (HOP-92): 28.6 µM (inactive)
- GI50 (NCI/ADR-RES): 90.4 µM (inactive)
- GI50 (BT-549): > 100 µM (inactive)
- GI50 (SR): > 100 µM (inactive)
- GI50 (A498): > 100 µM (inactive)
- GI50 (MDA-N): > 100 µM (inactive)
- GI50 (T47D): > 100 µM (inactive)
- GI50 (Hs-578T): > 100 µM (inactive)
- GI50 (SN12C): > 100 µM (inactive)
- GI50 (U-251): > 100 µM (inactive)
- GI50 (SNB-75): > 100 µM (inactive)
- GI50 (NCI-H226): > 100 µM (inactive)

Compound: C1=CCC[C@@H]2CN3CCCC/C=C\CCCC[C@H]4C[C@H](CN(CCCCCCCC1)C4)[C@H]2CC3
- GI50 (UACC-257): 10.2 µM (inactive)
- GI50 (HCT-15): 10.4 µM
- GI50 (EKVX): 11.3 µM (inactive)
- GI50 (HCC 2998): 7.59 µM (inactive)
- GI50 (K562): 9.79 µM (inactive)
- GI50 (HOP-62): 8.45 µM (inactive)
- GI50 (SK-MEL-5): 9.27 µM (inactive)
- GI50 (NCI-H23): 13.2 µM (inactive)
- GI50 (NCI-H522): 9.42 µM (inactive)
- GI50 (IGROV-1): 10.2 µM (inactive)
- GI50 (ACHN): 9.68 µM (inactive)
- GI50 (HT-29): 10.9 µM (inactive)
- GI50 (OVCAR-5): 10.6 µM (inactive)
- GI50 (DU-145): 18.2 µM (inactive)
- GI50 (HL-60): 12 µM (inactive)
- GI50 (OVCAR-4): 12.2 µM (inactive)
- GI50 (A549): 9.2 µM (inactive)
- GI50 (PC-3): 12.8 µM (inactive)
- GI50 (CAKI-1): 9.23 µM (inactive)
- GI50 (NCI-H460): 9.75 µM (inactive)
- GI50 (M14): 8.97 µM (inactive)
- GI50 (UACC-62): 9.46 µM (inactive)
- GI50 (LOX IMVI): 8.59 µM (inactive)
- GI50 (SNB-19): 10.9 µM (inactive)
- GI50 (SW-620): 9.02 µM (inactive)
- GI50 (SK-MEL-2): 8.61 µM (inactive)
- GI50 (SF-539): 7.98 µM (inactive)
- GI50 (SK-MEL-28): 7.93 µM (inactive)
- GI50 (Malme-3M): 9.33 µM (inactive)
- GI50 (OVCAR-3): 8.07 µM (inactive)
- GI50 (KM12): 7.91 µM (inactive)
- GI50 (CCRF-CEM): 12.4 µM (inactive)
- GI50 (COLO 205): 8.28 µM (inactive)
- GI50 (SF-268): 10.5 µM (inactive)
- GI50 (MCF7): 9.18 µM (inactive)
- GI50 (MOLT-4): 9.79 µM (inactive)
- GI50 (OVCAR-8): 9.55 µM (inactive)
- GI50 (HCT-116): 9.12 µM (inactive)
- GI50 (RPMI-8226): 8.11 µM (inactive)
- GI50 (MDA-MB-231): 9.04 µM (inactive)
- GI50 (TK-10): 8.83 µM (inactive)
- GI50 (786-0): 8.67 µM (inactive)
- GI50 (SF-295): 9.27 µM (inactive)
- GI50 (SK-OV-3): > 50 µM (inactive)
- GI50 (BT-549): 12.9 µM (inactive)
- GI50 (MDA-MB-435): 8.69 µM (inactive)
- GI50 (SR): 9.25 µM (inactive)
- GI50 (A498): 12.3 µM (inactive)
- GI50 (MDA-N): 8.79 µM (inactive)
- GI50 (T47D): 12.7 µM (inactive)
- GI50 (Hs-578T): 10.3 µM (inactive)
- GI50 (SN12C): 12.5 µM (inactive)
- GI50 (U-251): 8.51 µM (inactive)
- GI50 (SNB-75): 8.95 µM (inactive)
- GI50 (NCI-H226): > 50 µM (inactive)

Source: ChEMBL document CHEMBL1201862, “PubChem BioAssay data set” (2004)
